# Assays:
# Assay type in all cases: in vivo
# Plutella xylostella = experiment: Test of insecticidal effect on Plutella xylostella (dip of Chinese cabbage seedlings with laid eggs); conditions: 144 h, seedlings with laid eggs dipped for about 30 seconds, 25° C., 6 days after the dip treatment, read-out: insecticidal effect (corrected mortality rate), activity level
# From the text: Test of Insecticidal Effect on Plutella xylostella
# Adults of Plutella xylostella were released onto Chinese cabbage seedlings and allowed to lay eggs thereon. At 2 days after the release of the adults, the Chinese cabbage seedlings with laid eggs were dipped for about 30 seconds in agrochemical dispersions diluted to 500 ppm, each of which contained a different condensed heterocyclic compound represented by the general formula (1) of the present invention as an active ingredient. The seedlings were air-dried and then kept in a thermostatic chamber at 25° C. At 6 days after the dip treatment, the number of hatched larvae per plot was counted, the mortality rate was calculated according to the formula shown below, and the insecticidal effect was evaluated according to the criterion of Test Example 1. This test was conducted in triplicate using 10 adults of Plutella xylostella per plot. Corrected mortality rate (%)=100×(Number of hatched larvae in a non-treatment plot−Number of hatched larvae in a treatment plot)/Number of hatched larvae in a non-treatment plot
# Myzus persicae = experiment: Test of control effect on Myzus persicae (foliar application, potted Chinese cabbage); conditions: 144 h, foliar application to potted Chinese cabbage plants, 6 days after the foliar application, read-out: control effect (control rate), activity level
# From the text: Test of Control Effect on Myzus persicae Chinese cabbage plants were planted in plastic pots (diameter: 8 cm, height: 8 cm), green peach aphids (Myzus persicae) were propagated on the plants, and the number of surviving green peach aphids in each pot was counted. The condensed heterocyclic compounds represented by the general formula (1) of the present invention or salts thereof were separately dispersed in water and diluted to 500 ppm, and the agrochemical dispersions were applied to the foliage of the potted Chinese cabbage plants. After the plants were air-dried, the pots were kept in a greenhouse. At 6 days after the foliar application, the number of surviving green peach aphids on the Chinese cabbage plant in each pot was counted, the control rate was calculated according to the formula shown below, and the control effect was evaluated according to the criterion shown below. Control rate=100−{(T×Ca)/(Ta×C)}×100 Ta: the number of survivors before the foliar application in a treatment plot T: the number of survivors after the foliar application in a treatment plot Ca: the number of survivors before the foliar application in a non-treatment plot C: the number of survivors after the foliar application in a non-treatment plot Criterion A: the control rate is 100%. B: the control rate is 90 to 99%. C: the control rate is 80 to 89%. D: the control rate is 50 to 79%.
# Laodelphax striatella = experiment: Test of insecticidal effect on Laodelphax striatella (rice seedling dip); conditions: Laodelphax striatellus, 192 h, rice seedlings dipped for 30 seconds, 3rd-instar larvae, 8 days after the inoculation, read-out: insecticidal effect (corrected mortality rate), activity level
# From the text: Test of Insecticidal Effect on Laodelphax striatella
# The condensed heterocyclic compounds represented by the general formula (1) of the present invention or salts thereof were separately dispersed in water and diluted to 500 ppm, and rice plant seedlings (variety: Nihonbare) were dipped in the agrochemical dispersions for 30 seconds. After air-dried, each seedling was put into a separate glass test tube and inoculated with ten 3rd-instar larvae of Laodelphax striatella, and then the glass test tubes were capped with cotton plugs. At 8 days after the inoculation, the numbers of surviving larvae and dead larvae were counted, the corrected mortality rate was calculated according to the formula shown below, and the insecticidal effect was evaluated according to the criterion of Test Example 1. Corrected mortality rate (%)=100×(Survival rate in a non-treatment plot−Survival rate in a treatment plot)/Survival rate in a non-treatment plot
SMILES,mortality at 500 ppm (Plutella xylostella) [%],pest or weed control at 500 ppm (Myzus persicae) [%],mortality at 500 ppm (Laodelphax striatella) [%]
"CCS(=O)(=O)c1cc(C2CC2)cnc1-c1nc2cc(C(F)(F)F)cnc2o1 [Compound 3-15, 2-(3-ethylsulfonyl-5-cyclopropylpyridin-2-yl)-5-trifluoromethyl-oxazolo[5,4-b]pyridine]",100,100,100
CCS(=O)(=O)c1cc(C2(C#N)CC2)cnc1-c1nc2cc(C(F)(F)F)cnc2n1C [Compound 11-13],100,100,100
CCS(=O)(=O)c1cc(C2CC2C(=O)OC)cnc1-c1nc2cc(C(F)(F)F)cnc2n1C (centres unmarked) [Compound 11-82],–,100,100
CCS(=O)(=O)c1cc(C2(C(=O)O)CC2)cnc1-c1nc2cc(C(F)(F)F)cnc2n1C [Compound 11-1],100,100,100
CCS(=O)(=O)c1cc(C2CC2)cnc1-c1nc2cc(C(F)(F)F)cnc2s1 [Compound 5-15],100,100,100
"CCSc1cc(C2CC2)cnc1-c1nc2cc(C(F)(F)F)ccc2n1C [Compound 7-13, 2-(3-ethylthio-5-cyclopropylpyridin-2-yl)-1-methyl-5-trifluoromethyl-1H-benzimidazole]",100,100,100
"CCS(=O)(=O)c1cc(C2CC2)cnc1-c1nc2cc(C(F)(F)F)ccc2n1C [Compound 7-15, 2-(3-ethylsulfonyl-5-cyclopropylpyridin-2-yl)-1-methyl-5-trifluoromethyl-1H-benzimidazole]",100,100,100
CCS(=O)(=O)c1cc(C2(C(=O)OC)CC2)cnc1-c1nc2cc(C(F)(F)F)cnc2n1C [Compound 11-2],100,100,100
CCS(=O)(=O)c1cc(C2(C(N)=O)CC2)cnc1-c1nc2cc(C(F)(F)F)cnc2n1C [Compound 11-6],100,100,100
"CCSc1cc(C2CC2)cnc1-c1nc2cc(C(F)(F)F)ccc2s1 [Compound 9-10, 2-(3-ethylthio-5-cyclopropylpyridin-2-yl)-5-trifluoromethyl-benzothiazole]",100,100,100
CCS(=O)(=O)c1cc(C2CC2)cnc1-c1nc2cc(C(F)(F)F)cnc2n1C [Compound 1-15],100,100,100
"CCSc1cc(C2CC2)cnc1-c1nc2cc(C(F)(F)F)cnc2o1 [Compound 3-13, 2-(3-ethylthio-5-cyclopropylpyridin-2-yl)-5-trifluoromethyl-oxazolo[5,4-b]pyridine]",100,100,100
"CC[S+]([O-])c1cc(C2CC2)cnc1-c1nc2cc(C(F)(F)F)ccc2n1C (centres unmarked) [Compound 7-14, 2-(3-ethylsulfinyl-5-cyclopropylpyridin-2-yl)-1-methyl-5-trifluoromethyl-1H-benzimidazole]",100,100,100
CCSc1cc(C2CC2)cnc1-c1nc2cc(C(F)(F)F)cnc2s1 [Compound 5-13],100,100,100
"CCS(=O)(=O)c1cc(C2CC2)cnc1-c1nc2cc(C(F)(F)F)ccc2s1 [Compound 9-12, 2-(3-ethylsulfonyl-5-cyclopropylpyridin-2-yl)-5-trifluoromethyl-benzothiazole]",100,100,100

# — US10266552B2, “Condensed heterocyclic compound having cycloalkylpyridyl group or salt thereof, agricultural and horticultural insecticide comprising the compound, and method for using the insecticide” (Nihon Nohyaku Co., Ltd., priority 2015, dated 2019)
